Results: patent US8841264B2, “Compositions” (DSM IP Assets B.V., priority 2006, dated 2014)
Read-outs that look alike come from different tables or passages of the source.

Legend:
[1] = tested on: nitric oxide production in RAW267.7 macrophages; assay: Inhibition of nitric oxide production in LPS-activated macrophages (Griess reaction); format: cell-based, murine; conditions: for inhibition at 3.13 µM: 3.13 μmol/L; for inhibition at 3.125 µM: 3.125 μmol/L; for inhibition at 12.5 µM / % inhibition of NO production: 12.5 μmol/L
Method: (§1) The anti-inflammatory effects combinations of OH-tyrosol or oleuropein and representatives of other groups of natural substances (isoflavones, catechins, phtalides, hydroxylated biphenyls) were evaluated in activated macrophages by determining the inhibition of the synthesis of nitric oxide and/or pro-inflammatory prostaglandins (PG). PGE2 plays a critical role in the inflammation process, while nitric oxide (NO) is a hallmark of inflammation in various chronic inflammatory diseases including various forms of arthritis, gastro-intestinal diseases and metabolic syndrome.
(§2) The anti inflammatory effect of compounds was tested in cellular assays using a murine macrophage indicator cell line, RAW267.7, which was purchased from American Type Culture Collection, (ATCC) and cultured in DMEM according to the protocol provided by ATCC. Cells (˜50,000/well) were seeded into flat-bottomed microtiter plates and cultured for one day. Cells were then starved in complete medium containing 0.25% FCS (D-025). After overnight culture, medium was removed and replaced by 100 μL of D-025 containing the test compounds at twice the final concentration. Subsequently, 100 μL of D-025 containing 2 μg/ml LPS was added (i.e. final LPS concentration of 1 μg/ml) and the cells cultured for 24 hours. Substances were usually tested in a concentration range from 0.2 to 50 μM (or μg/ml in the case of extracts) in two-fold dilution steps. Concentrations of nitrite which was generated from nitric oxide released by cells were determined by the Griess reaction using sodium nitrite as standard (see e.g Imai et al. Biochem Biophys Res Comm, 197, 105 [1993]). Briefly, 50 μl of supernatant was mixed with Griess reagent 1 (25 μL) and Griess reagent 2 (25 μL), centrifuged and the optical density at 540 nm determined. PGE2 secreted into the cell culture medium was determined by EIA obtained from Cayman Chemicals ([…]) and used according to the manufacturer's instructions. IC50 values were calculated using a […] least-square fitting equation [y=A+((B−A)/(1+((C−x)^D))] for best-fit curves (Excel fit software program).
(§3) In a methodological approach that was similar to that described for Example 1, the synergistic effect of lycopene, resveratrol and OH-tyrosol was tested on the inflammatory response. Dose-dependent effects of each substance on the production of nitric oxide or PGE2 in macrophages were determined.

[2] = tested on: PGE2 production in RAW267.7 macrophages; assay: Inhibition of PGE2 production in LPS-activated macrophages (EIA); format: cell-based, murine
Method: as §1, §2, §3

[3] = Mus musculus, Macrophage, Example 2, read-out: % inhibition of NO production
[4] = Mus musculus, Macrophage, Example 2, read-out: IC50 of pure compound (NO production)
[5] = Mus musculus, Macrophage, single substance, RAW267.7, LPS 1 μg/ml, 24 hours, read-out: IC50 Nitric Oxide
[6] = Mus musculus, Macrophage, Example 2, read-out: IC50 of pure compound (PGE2 production)
[7] = Mus musculus, Macrophage, single substance, RAW267.7, LPS 1 μg/ml, 24 hours, read-out: IC50 PGE2
[8] = Mus musculus, Macrophage, read-out: % inhibition of NO production

| Compound | IC50 [1, 4] | IC50 [1, 5] | IC50 [2, 6] | IC50 [2, 7] | inhibition at 12.5 µM [1, 8] | also measured |
| --- | --- | --- | --- | --- | --- | --- |
| Oc1ccc(/C=C/c2cc(O)cc(O)c2)cc1 [Resveratrol, (trans)-resveratrol] | 19.3 µM | 31 ± 2 µM | 23.4 µM | 24 ± 2 µM |  | inhibition at 3.13 µM [1, 3]: -2% |
| CCC/C=C1\OC(=O)C2=C1CCC=C2 [Ligustilide, ligustilide] |  | 15 ± 1 µM |  | 10 ± 2 µM | 38% | inhibition at 3.125 µM [1, 8]: 28% |
| O=c1c(-c2ccc(O)cc2)coc2cc(O)cc(O)c12 [Genistein, 4′,5,7-trihydroxyisoflavone] |  | 37 ± 2 µM |  | 4.6 ± 0.6 µM |  | inhibition at 25 µM ([1]; Mus musculus, Macrophage, 25 μmol/L, read-out: % inhibition of NO production): 40% |
| (−)-epigallocatechin gallate [EGCG] |  |  |  |  |  | % inhibition of NO production [1]: 12%; IC50 ([1]; single substance, RAW267.7, LPS 1 μg/ml, 24 hours, read-out: IC50 Nitric Oxide): 33 ± 2 µM; IC50 ([2]; single substance, RAW267.7, LPS 1 μg/ml, 24 hours, read-out: IC50 PGE2): 35 ± 3 µM |
| C=CCc1ccc(O)c(-c2ccc(O)c(CC=C)c2)c1 [Honokiol, 3′,5-Diallyl-2,4′-biphenyldiol] |  | 8 ± 1 µM |  | 1 ± 0.2 µM | 66% |  |
| C/C=C1/[C@H](O[C@@H]2O[C@H](CO)[C@@H](O)[C@H](O)[C@H]2O)OC=C(C(=O)OC)[C@H]1CC(=O)OCCc1ccc(O)c(O)c1 [Oleuropein, oleuropein] |  | 52 ± 5 µM |  | 60 ± 10 µM | 8% | inhibition at 3.125 µM [1, 8]: 2% |
| OCCc1ccc(O)c(O)c1 [OH-Tyrosol, 2-(3,4-dihydroxyphenyl)-ethanol] | 24.1 µM | 28 ± 2 µM | 22.7 µM | 24 ± 3 µM |  | % inhibition of NO production [1]: 33%; inhibition at 6.25 µM ([1]; Mus musculus, Macrophage, 6.25 μmol/L, read-out: % inhibition of NO production): 7%; inhibition at 3.13 µM [1, 3]: -4% |
| CC(C)=CCC/C(C)=C/C=C/C(C)=C/C=C/C(C)=C/C=C/C=C(C)/C=C/C=C(C)/C=C/C=C(\C)CCC=C(C)C [Lycopene (Ly), ψ,ψ carotene] | > 8 µM |  | > 8 µM |  |  | inhibition at 0.5 µM ([1]; Mus musculus, Macrophage, Example 2, 0.5 μmol/L, read-out: % inhibition of NO production): 4%; anti-inflammatory effect (production of nitric oxide or PGE2 in macrophages) ([1]; at <8 μmol/L): no anti-inflammatory effect; inhibition at 0.25 µM ([2]; Mus musculus, Macrophage, Example 2, 0.25 μmol/L): -5% |
